Data from patent US7253318B2, “Benzyloxy derivatives as MAOB inhibitors” (Hoffman-La Roche Inc., priority 2004, dated 2007).

Columns and labels:
human MAO-A = biological target: T1, human MAO-A (Homo sapiens, UniProt P21397); test: MAO-A enzymatic activity, spectrophotometric assay (Amplex Red, tyramine substrate) on membranes of transfected EBNA cells; type: biochemical; settings: membranes of EBNA cells transfected with human MAO-A cDNA, 30 min preincubation at 37° C., pH 7.4
T1 construct: expressed in transfected cells; host or cells: EBNA cells (transient transfection), membrane preparation
T1 sequence (P21397 1-527): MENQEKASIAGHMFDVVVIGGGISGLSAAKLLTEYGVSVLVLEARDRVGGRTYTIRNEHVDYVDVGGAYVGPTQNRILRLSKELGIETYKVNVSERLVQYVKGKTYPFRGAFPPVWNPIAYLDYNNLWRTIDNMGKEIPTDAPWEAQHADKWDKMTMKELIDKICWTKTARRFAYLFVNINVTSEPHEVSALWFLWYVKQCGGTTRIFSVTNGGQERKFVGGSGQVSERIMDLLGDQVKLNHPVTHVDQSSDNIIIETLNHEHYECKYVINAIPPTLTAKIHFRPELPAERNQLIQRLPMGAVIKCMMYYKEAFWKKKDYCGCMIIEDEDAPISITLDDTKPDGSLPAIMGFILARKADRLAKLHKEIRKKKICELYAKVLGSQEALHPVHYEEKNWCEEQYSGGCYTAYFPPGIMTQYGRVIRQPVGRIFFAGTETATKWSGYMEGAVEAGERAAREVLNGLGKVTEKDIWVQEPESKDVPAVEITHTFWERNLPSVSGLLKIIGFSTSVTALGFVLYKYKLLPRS
Experimental: (§1) The cDNA's encoding human MAO-A and MAO-B were transiently transfected into EBNA cells using the procedure described by Schlaeger and Christensen [Cytotechnology 15:1-13 (1998)]. After transfection, cells were homogenised by means of a Polytron homogenizer in 20 mM Tris HCl buffer, pH 8.0, containing 0.5 mM EGTA and 0.5 mM phenylmethanesulfonyl fluoride. Cell membranes were obtained by centrifugation at 45,000×g and, after two rinsing steps with 20 mM Tris HCl buffer, pH 8.0, containing 0.5 mM EGTA, membranes were eventually re-suspended in the above buffer and aliquots stored at −80° C. until use.
(§2) MAO-A and MAO-B enzymatic activity was assayed in 96-well-plates using a spectrophotometric assay adapted from the method described by Zhou and Panchuk-Voloshina [Analytical Biochemistry 253:169-174 (1997)]. Briefly, membrane aliquots were incubated in 0.1 M potassium phosphate buffer, pH 7.4, for 30 min at 37° C. with or without various concentrations of the compounds. After this period, the enzymatic reaction was started by the addition of the MAO substrate tyramine together with 1 U/ml horse-radish peroxidase (Roche Biochemicals) and 80 μM N-acetyl-3,7,-dihydroxyphenoxazine (Amplex Red, Molecular Probes). The samples were further incubated for 30 min at 37° C. in a final volume of 200 μl and absorbance was then determined at a wavelength of 570 nm using a SpectraMax plate reader (Molecular Devices). Background (non-specific) absorbance was determined in the presence of 10 μM clorgyline for MAO-A or 10 μM L-deprenyl for MAO-B.
(§3) IC50 values were determined from inhibition curves obtained using nine inhibitor concentrations in duplicate, by fitting data to a four parameter logistic equation using a computer program.

human MAO-B = biological target: T2, human MAO-B (Homo sapiens, UniProt P27338); test: MAO-B enzymatic activity, spectrophotometric assay (Amplex Red, tyramine substrate) on membranes of transfected EBNA cells; type: biochemical; settings: membranes of EBNA cells transfected with human MAO-B cDNA, 30 min preincubation at 37° C., pH 7.4
T2 construct: expressed in transfected cells; host or cells: EBNA cells (transient transfection), membrane preparation
T2 sequence (P27338 1-520): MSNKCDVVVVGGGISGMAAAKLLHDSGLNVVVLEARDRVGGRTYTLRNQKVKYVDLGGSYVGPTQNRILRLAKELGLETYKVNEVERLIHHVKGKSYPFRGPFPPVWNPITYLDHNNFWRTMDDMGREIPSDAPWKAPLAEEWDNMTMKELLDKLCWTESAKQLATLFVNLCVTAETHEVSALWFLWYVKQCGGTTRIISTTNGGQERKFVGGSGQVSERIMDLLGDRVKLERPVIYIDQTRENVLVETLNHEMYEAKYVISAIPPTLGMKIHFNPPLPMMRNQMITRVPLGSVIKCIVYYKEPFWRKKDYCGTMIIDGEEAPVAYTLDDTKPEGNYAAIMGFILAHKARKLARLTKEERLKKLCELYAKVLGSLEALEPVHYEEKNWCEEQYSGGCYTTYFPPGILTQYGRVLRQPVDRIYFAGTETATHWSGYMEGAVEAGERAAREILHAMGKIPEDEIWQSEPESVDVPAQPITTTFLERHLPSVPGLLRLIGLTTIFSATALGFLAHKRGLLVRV
Experimental: as §1, §2, §3

SMILES	IC50 (human MAO-A)	IC50 (human MAO-B)
CNC(=O)C(C)Oc1ccc(OCc2cccc(F)c2)cc1 (racemic) [Example 11, (RS)-2-[4-(3-Fluoro-benzyloxy)-phenoxy]-N-methyl-propionamide]	> 10 µM	0.031 µM
CNC(=O)C(C)Oc1ccc(OCc2cccc(Cl)c2)cc1 (racemic) [Example 12, (RS)-2-[4-(3-Chloro-benzyloxy)-phenoxy]-N-methyl-propionamide]	> 10 µM	0.015 µM
CNC(=O)COc1ccc(OCc2ccccc2)cc1 [Example 2, 2-(4-Benzyloxy-phenoxy)-N-methyl-acetamide]	> 10 µM	0.052 µM
CNC(=O)COc1ccc(OCc2ccc(C#N)cc2)cc1 [Example 3, 2-[4-(4-Cyano-benzyloxy)-phenoxy]-N-methyl-acetamide]	2.86 µM	0.028 µM
CNC(=O)COc1ccc(OCc2ccc(Cl)cc2)cc1 [Example 4, 2-[4-(4-Chloro-benzyloxy)-phenoxy]-N-methyl-acetamide]	2.44 µM	0.012 µM
CNC(=O)COc1ccc(OCc2ccccc2F)cc1 [Example 5, 2-[4-(2-Fluoro-benzyloxy)-phenoxy]-N-methyl-acetamide]	> 9 µM	0.081 µM
CNC(=O)COc1ccc(OCc2cccc(F)c2)cc1 [Example 6, 2-[4-(3-Fluoro-benzyloxy)-phenoxy]-N-methyl-acetamide]	> 10 µM	0.021 µM
CNC(=O)COc1ccc(OCc2ccc(F)cc2)cc1 [Example 7, 2-[4-(4-Fluoro-benzyloxy)-phenoxy]-N-methyl-acetamide]	5.4 µM	0.009 µM
CNC(=O)OCc1ccc(OCc2cccc(F)c2)cc1 [Example 26, Methyl-carbamic acid 4-(3-fluoro-benzyloxy)-benzyl ester]	> 10 µM	0.089 µM

Second part, the molecule after the results:

IC50 (human MAO-A)	IC50 (human MAO-B)	SMILES
> 10 µM	0.031 µM	CNC(=O)C(C)Oc1ccc(OCc2ccc(C#N)cc2)cc1 (racemic) [Example 14, (RS)-2-[4-(4-Cyano-benzyloxy)-phenoxy]-N-methyl-propionamide]
> 10 µM	0.056 µM	CCC(Oc1ccc(OCc2cccc(F)c2)cc1)C(=O)NC (racemic) [Example 17, (RS)-2-[4-(3-Fluoro-benzyloxy)-phenoxy]-N-methyl-butyramide]
> 10 µM	0.028 µM	CCC(Oc1ccc(OCc2cccc(Cl)c2)cc1)C(=O)NC (racemic) [Example 18, (RS)-2-[4-(3-Chloro-benzyloxy)-phenoxy]-N-methyl-butyramide]
> 10 µM	0.074 µM	CCC(Oc1ccc(OCc2ccc(C#N)cc2)cc1)C(=O)NC (racemic) [Example 19, (RS)-2-[4-(4-Cyano-benzyloxy)-phenoxy]-N-methyl-butyramide]
> 10 µM	0.009 µM	CNC(=O)C(C)Oc1ccc(OCc2cccc(Cl)c2)cc1 (single isomer, unassigned) [Example 13, (S or R)-2-[4-(3-Chloro-benzyloxy)-phenoxy]-N-methyl-propionamide]
> 10 µM	0.044 µM	NC(=O)CCOc1ccc(OCc2cccc(F)c2)cc1 [Example 23, 3-[4-(3-Fluoro-benzyloxy)-phenoxy]-propionamide]
> 10 µM	0.068 µM	NC(=O)OCCc1ccc(OCc2cccc(F)c2)cc1 [Example 24, Carbamic acid 2-[4-(3-fluoro-benzyloxy)-phenyl]-ethyl ester]
> 10 µM	0.051 µM	NC(=O)COCc1ccc(OCc2cccc(F)c2)cc1 [Example 27, 2-[4-(3-Fluoro-benzyloxy)-benzyloxy]-acetamide]
